Measured values published in patent US20070117743A1, “New antitumoral compounds” (priority 2003, published 2007).
Like-named read-outs stand apart in the source and are kept apart here. Where a SMILES comes first, the peptide text is derived from it. Bridges are numbered along the chain shown (N, C = ends). [ ]: non-standard residue; d: D form. The star is where a group is joined. d(aIle) = CC[C@H](C)[C@@H](N)C(=O)O; d(aThr) = C[C@@H](O)[C@@H](N)C(=O)O; Hexanoyl(5-Me) = CC(C)CCCC(=O)*; Orn = NCCC[C@H](N)C(=O)O

Columns and labels:
Assay type in all cases: cell-based, human
SK-BR-3 = assay: SRB colorimetric assay of cell growth and viability, SK-BR-3; details: 48 hours exposure
LNCaP = assay: SRB colorimetric assay of cell growth and viability, LNCaP; details: 48 hours exposure; for GI50: read-out: GI50 LN-caP; for CC50: read-out: LC50 LN-caP
IGROV-ET = assay: SRB colorimetric assay of cell growth and viability, IGROV-ET; details: 48 hours exposure; for CC50: read-out: LC50 IGROV-ET
SK-MEL-28 = assay: SRB colorimetric assay of cell growth and viability, SK-MEL-28; details: 48 hours exposure; for CC50: read-out: LC50 MEL-28
IGROV-1 = assay: SRB colorimetric assay of cell growth and viability, IGROV-1; details: 48 hours exposure
K-562 = assay: SRB colorimetric assay of cell growth and viability, K-562; details: 48 hours exposure; for CC50: read-out: LC50 K-562
HeLa-APL = assay: SRB colorimetric assay of cell growth and viability, HeLa-APL; details: 48 hours exposure; for CC50: read-out: LC50 HELA-APL
LoVo-Dox = assay: SRB colorimetric assay of cell growth and viability, LoVo-Dox; details: 48 hours exposure; for CC50: read-out: LC50 LOVO-DOX
Outline: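 First, 5×10^3 cells per well attach for 18 hours in RPMI 1640 with 10% FBS at 37° C and 5% CO2. Next, samples spanning 10 to 10^−8 μg/mL are added for 48 hours. Finally, cells are fixed with TCA, stained with SRB for 10 minutes and read at 490 nm.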

LoVo = assay: SRB colorimetric assay of cell growth and viability, LoVo; details: 48 hours exposure; for CC50: read-out: LC50 LOVO
DU-145 = assay: SRB colorimetric assay of cell growth and viability, DU-145; details: 48 hours exposure
HT-29 = assay: SRB colorimetric assay of cell growth and viability, HT-29; details: 48 hours exposure; for GI50: read-out: GI50 HT-29; for CC50: read-out: LC50 HT-29
A-549 = assay: SRB colorimetric assay of cell growth and viability, A-549; details: 48 hours exposure; for GI50: read-out: GI50 A-549; for CC50: read-out: LC50 A-549
PANC-1 = assay: SRB colorimetric assay of cell growth and viability, PANC-1; details: 48 hours exposure; for CC50: read-out: LC50 PANC-1
HeLa = assay: SRB colorimetric assay of cell growth and viability, HeLa; details: 48 hours exposure; for CC50: read-out: LC50 HELA

CC[C@H](C)[C@@H](NC(=O)[C@H](CCCN)NC(=O)[C@H]1CCCN1C(=O)[C@H](NC(=O)[C@@H](NC(=O)[C@@H](NC(=O)[C@H](NC(=O)CCCC(C)C)C(C)C)[C@@H](C)O)C(C)C)C(C)C)C(=O)N[C@H]1C(=O)N[C@H]([C@@H](C)CC)C(=O)N[C@H](C(C)C)C(=O)N[C@@H](Cc2ccccc2)C(=O)NCC(=O)N[C@@H](C(C)C)C(=O)O[C@@H]1C [Compound 65, [Gly^2]-KF] ({Hexanoyl(5-Me)}-[dV]TV[dV][dP][Orn][d(aIle)][d(aThr)][d(aIle)][dV]FGV; ester 8-C)
GI50 (SK-BR-3): 1160 nM | LC50 (SK-BR-3): 4190 nM | TGI SK-BR-3 (SK-BR-3): 2.21E−06 Molar | TGI LN-caP (LNCaP): 6.89E−06 Molar | GI50 (LNCaP): 3480 nM | CC50 (LNCaP): ≥ 6890 nM | GI50 (IGROV-ET): 806 nM | TGI IGROV-ET (IGROV-ET): 1.69E−06 Molar | CC50 (IGROV-ET): 3560 nM | GI50 (SK-MEL-28): 1430 nM | TGI MEL-28 (SK-MEL-28): 3.39E−06 Molar | CC50 (SK-MEL-28): ≥ 6890 nM | GI50 (IGROV-1): 1440 nM | LC50 (concentration causing 50% net cell killing) (IGROV-1): 4960 nM | TGI IGROV (IGROV-1): 2.67E−06 Molar | GI50 (K-562; SRB): 3000 nM | TGI K-562 (K-562; SRB): 6.89E−06 Molar | CC50 (K-562; SRB): ≥ 6890 nM | GI50 (HeLa-APL; SRB): 2230 nM | TGI HELA-APL (HeLa-APL; SRB): 6.89E−06 Molar | CC50 (HeLa-APL; SRB): ≥ 6890 nM | GI50 (LoVo-Dox; SRB): 557 nM | TGI LOVO-DOX (LoVo-Dox; SRB): 1.53E−06 Molar | CC50 (LoVo-Dox; SRB): 3810 nM | GI50 (LoVo; SRB): 1030 nM | TGI LOVO (LoVo; SRB): 1.98E−06 Molar | CC50 (LoVo; SRB): 3810 nM | GI50 (DU-145): 1170 nM | LC50 (concentration causing 50% net cell kill) (DU-145): 4440 nM | TGI DU-145 (DU-145): 2.28E−06 Molar | TGI HT-29 (HT-29; SRB): 2.54E−06 Molar | GI50 (HT-29; SRB): 1230 nM | CC50 (HT-29; SRB): 5280 nM | TGI A-549 (A-549; SRB): 4.99E−06 Molar | GI50 (A-549; SRB): 1950 nM | CC50 (A-549; SRB): ≥ 6890 nM | GI50 (PANC-1; SRB): ≥ 6890 nM | TGI PANC-1 (PANC-1; SRB): 6.89E−06 Molar | CC50 (PANC-1; SRB): ≥ 6890 nM | GI50 (HeLa; SRB): 1210 nM | TGI HELA (HeLa; SRB): 1.99E−06 Molar | CC50 (HeLa; SRB): 3260 nM

[(c/t)-4-Me-cHexa^14]-KF [Compound 14]
GI50 (SK-BR-3): 152 nM | LC50 (SK-BR-3): 657 nM | TGI SK-BR-3 (SK-BR-3): 3.17E−07 Molar | TGI LN-caP (LNCaP): 2.87E−06 Molar | GI50 (LNCaP): 1340 nM | CC50 (LNCaP): 6110 nM | GI50 (IGROV-ET): 846 nM | TGI IGROV-ET (IGROV-ET): 1.94E−06 Molar | CC50 (IGROV-ET): 4470 nM | GI50 (SK-MEL-28): 886 nM | TGI MEL-28 (SK-MEL-28): 1.89E−06 Molar | CC50 (SK-MEL-28): 4010 nM | GI50 (IGROV-1): 382 nM | LC50 (concentration causing 50% net cell killing) (IGROV-1): 3470 nM | TGI IGROV (IGROV-1): 1.22E−06 Molar | GI50 (K-562): 2020 nM | TGI K-562 (K-562): 3.58E−06 Molar | CC50 (K-562): 6320 nM | GI50 (HeLa-APL): 611 nM | TGI HELA-APL (HeLa-APL): 1.72E−06 Molar | CC50 (HeLa-APL): 4560 nM | GI50 (LoVo-Dox): 144 nM | TGI LOVO-DOX (LoVo-Dox): 2.88E−07 Molar | CC50 (LoVo-Dox): 576 nM | GI50 (LoVo): 99.3 nM | TGI LOVO (LoVo): 2.34E−07 Molar | CC50 (LoVo): 550 nM | GI50 (DU-145): 612 nM | LC50 (concentration causing 50% net cell kill) (DU-145): 3360 nM | TGI DU-145 (DU-145): 1.48E−06 Molar | TGI HT-29 (HT-29): 4.22E−07 Molar | GI50 (HT-29): 189 nM | CC50 (HT-29): 1830 nM | TGI A-549 (A-549): 2.15E−06 Molar | GI50 (A-549): 933 nM | CC50 (A-549): 4950 nM | GI50 (PANC-1): 2010 nM | TGI PANC-1 (PANC-1): 6.71E−06 Molar | CC50 (PANC-1): 6710 nM | GI50 (HeLa): 779 nM | TGI HELA (HeLa): 1.84E−06 Molar | CC50 (HeLa): 4370 nM
